≈ marks a conversion by molar mass, not a printed value.
Columns and labels:
Colinus virginianus = details: for LD50: acute, oral, mortality; for NOEL: reproduction developmental
Rattus norvegicus = details: for LD50: mortality
Apis mellifera = details: acute; duration: 48 hours; dermal; mortality
Daphnia magna = details: chronic/long-term; duration: 21 days; reproduction
Oncorhynchus mykiss = details: chronic/long-term; duration: 28 days; growth
Bibionidae = details: chronic/long-term; duration: 28 days
Plant = details: not reported; seedling emergence
Leuciscus idus = details: acute; duration: 96 hours; mortality
Aphidius rhopalosiphi = assay: LR50; higher = less toxic; details: acute; duration: 48 hours; mortality
Typhlodromus pyri = assay: LR50; higher = less toxic; details: acute; duration: 14 days; mortality

NC(Cc1ncn[nH]1)C(=O)O (centres undefined) [1,2,4-Triazole-3-alanine]
LD50 (Colinus virginianus; diet): 1310 mg/kg-day
LD50 (Colinus virginianus): > 5000 mg/kg-day
LD50 (Rattus norvegicus; acute, oral): > 5000 mg/kg-day

c1nc[nH]n1 [1H-1,2,4-Triazole]
LD50 (Rattus norvegicus; acute, oral): 1650 mg/kg-day

CC(C)(C)C(=O)C(Oc1ccc(Cl)cc1)n1cncn1 (centres undefined) [Triadimefon]
NOEL (Colinus virginianus): 43.5 mg/kg-day

CC(C)(C)C(O)C(Oc1ccc(Cl)cc1)n1cncn1 (centres undefined) [Triadimenol]
LD50 (Apis mellifera): > 200 µg/piece
NOEC (Daphnia magna): 0.1 mg/L
NOEC (Oncorhynchus mykiss): 3.13 mg/L
NOEC (Bibionidae): 0.1 mg/L
LEL (Plant): 125 g/ha
LD50 (Colinus virginianus; diet): > 705 mg/kg-day
LD50 (Colinus virginianus): > 2000 mg/kg-day
NOEL (Colinus virginianus): 7.5 mg/kg-day
LD50 (Rattus norvegicus; acute, oral, M): 689 mg/kg-day
NOAEL (Rattus norvegicus; acute, oral, clinical signs): 2 mg/kg-day
NOAEL (Rattus norvegicus; chronic, duration: 2 years, organ weight): 5 mg/kg-day
NOEL (Rattus norvegicus; reproduction developmental, M, growth): 8.88 mg/kg-day
NOAEL (Rattus norvegicus; reproduction developmental, body weight): 6 mg/kg-day
NOAEL (Rattus norvegicus; subchronic, clinical signs): 3.4 mg/kg-day
LC50 (Leuciscus idus): 17.4 µg/mL (≈ 58.8 µM)
LC50 (Tagia sp.; acute, mortality): 781 mg/kg
NOEC (Tagia sp.; chronic/long-term): 100 mg/kg
LR50 (Aphidius rhopalosiphi): > 1250 g/ha
LR50 (Typhlodromus pyri): > 1250 g/ha
